This is an account of results in patent US20060167096A1, “Livestock products with an increased ppar/rxr heterodimer activator level” (priority 2003, published 2006).

In data set [1] the test system is RXR. Conditions: cell research; Kitareewan 1996; cited from earlier work.
The target of data set [2] is T1, PPAR alpha (Homo sapiens, UniProt Q07869).
T1 sequence (Q07869 1-468): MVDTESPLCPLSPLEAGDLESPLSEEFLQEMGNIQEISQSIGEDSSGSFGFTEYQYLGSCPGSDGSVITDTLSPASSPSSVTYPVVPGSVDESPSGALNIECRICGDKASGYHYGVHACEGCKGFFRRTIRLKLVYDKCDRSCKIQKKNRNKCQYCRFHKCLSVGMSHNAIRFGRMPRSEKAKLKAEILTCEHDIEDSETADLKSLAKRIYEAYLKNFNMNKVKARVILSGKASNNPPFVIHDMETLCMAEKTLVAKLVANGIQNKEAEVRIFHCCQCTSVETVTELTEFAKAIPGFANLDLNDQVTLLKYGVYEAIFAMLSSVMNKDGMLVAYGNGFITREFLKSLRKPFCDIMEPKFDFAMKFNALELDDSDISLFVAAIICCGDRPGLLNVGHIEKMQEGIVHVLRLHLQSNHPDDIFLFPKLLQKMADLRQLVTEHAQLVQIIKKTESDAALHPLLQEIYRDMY
Conditions: cited from earlier work.

Data set [3] relates to ROSS 308 broiler chicks. In words: Broiler feeding trial with phytol supplemented feed. The class given is in vivo, chicken. Conditions: 42 days. On the procedure:
(§1) In the present specification the level of the PPAR/RXR heterodimer activator is expressed as a percentage of total FAME fatty acids. These total FAME fatty acids comprise those fatty acids with a linear chain of at least 12 carbons and are measured by the so-called FAME technique, which is well known for the skilled person and wherein, first, fatty acid methyl esters are prepared which are, subsequently, analysed via gas chromatography. The FAME procedure used for determining the results obtained by the present invention was as follows. Lipids were extracted from the samples using a dissolving solution that is specific to each sample type. Nonadecanoic acid (19:0) was added as an internal standard. The two-step methylation procedure consisted of using a basic reagent NaOH/methanol followed by an acid reagent HCI/methanol. The fatty acid methyl esters (FAME) were analyzed by GC (HP 6890, Hewlett-Packard, Brussels, Belgium) using a CP-Sil88 column for FAME (100 m×250 μm×0.25 μm) (Chrompack, Middelburg, The Netherlands). The GC conditions were as adapted to each sample type. Peaks were identified by comparison of retention times with those of the corresponding standards (Sigma, Botnew, Belgium; Nu-Chek-Prep, Elysian, M N). Identification of the peaks included fatty acids between 12:0 and 22:6 and 5 different CLA isomers and phytanic acid and pristanic acid.
ROSS 308 broiler chicks were raised, lege artis, on an ad libitum diet, containing phytol at 2% by weight of feed that, characteristically, contains about 10% of humidity. The chicks consumed an average of about 0.1 kg dry weight of the feed per day. The phytol in the diet replaced 2% of the soybean oil included in feeds formulated based on the INVE Nutritional Requirement standard formula for a grower feed (formula 120). Please refer to the following tables for the feed formula and for its chemical composition.
The animals were slaughtered after 42 days and their tissues sampled for analysis.

Data set [4] has as its system ISABROWN layers. In words: Layer feeding trial with phytol supplemented feed. The class given is in vivo. Particulars: 2% phytol in feed, compared with standard layer diet.
Data set [5] concerns Tiger shrimp (Penaeus Monodon). In words: Shrimp feeding trial with phytol supplemented diet. The class given is in vivo. Conditions: 2% phytol diet, 4 weeks.
Data set [6] relates to Hybrid boars. In words: Pork finishing trial with phytol sprayed feed. The class given is in vivo, pig. On the procedure: as §1
Hybrid boars weighing in at about 80 kg were kept lege artis and fed a standard finishing granulated feed sprayed on with phytol at a level of 2% of feed weight. The feed was formulated and produced by Schatteman in Wetteren, Belgium and contained on average about 7% of humidity. On spraying, the feed readily absorbed this oily substance. […] Tissue samples were taken and the carcass quality assessed. The carcasses were further butchered in the usual fashion to chops, loins, sausages and the like and the meat quality of the prime cuts was assessed.
The quality was assessed objectively using the following parameters: % meat on the carcass, type-index, meat class, meat moisture, meat color, meat temperature and meat pH change.

Data set [7] has as its system laboratory animals. Particulars: Steinberg 1966, cited from earlier work.
The test system of data set [8] is lean pork. Conditions: cited from earlier work.
Data set [9] concerns egg yolk. Particulars: cited from earlier work.
In data set [10] the test system is yellow perch. Particulars: max 0.6% CLA in diet, Twibell 2001; cited from earlier work.
Data set [11] has as its system striped bass. Conditions: max 0.6% CLA in diet, Twibell 2000; cited from earlier work.
The subject of data set [12] is Carp. Conditions: max 1% CLA in diet, Choi 1999; cited from earlier work.
Data set [13] relates to Chicken meat. Conditions: max 1.5% CLA in diet, Szymczyk 2001; cited from earlier work.
The target in data set [14] is T2, PPAR gamma (Homo sapiens, UniProt P37231).
T2 sequence (P37231 1-505): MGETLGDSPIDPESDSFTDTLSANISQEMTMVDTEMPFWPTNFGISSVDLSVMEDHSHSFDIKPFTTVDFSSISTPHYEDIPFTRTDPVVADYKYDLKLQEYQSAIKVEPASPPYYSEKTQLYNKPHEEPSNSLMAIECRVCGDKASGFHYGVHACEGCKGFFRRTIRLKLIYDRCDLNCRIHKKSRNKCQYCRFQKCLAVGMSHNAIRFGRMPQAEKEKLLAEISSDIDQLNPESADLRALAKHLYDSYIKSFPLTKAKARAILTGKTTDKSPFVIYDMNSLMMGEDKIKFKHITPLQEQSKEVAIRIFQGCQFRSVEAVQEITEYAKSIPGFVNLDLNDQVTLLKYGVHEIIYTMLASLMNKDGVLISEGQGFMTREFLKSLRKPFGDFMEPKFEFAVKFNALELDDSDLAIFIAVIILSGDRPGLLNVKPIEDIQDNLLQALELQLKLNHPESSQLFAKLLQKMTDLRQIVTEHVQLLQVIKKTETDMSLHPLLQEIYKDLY
Conditions: Houseknecht 1998, Yu 2002; cited from earlier work.

Like-named read-outs stand apart in the source and are kept apart here.

`CC(C)CCC[C@@H](C)CCC[C@@H](C)CCCC(C)CC(=O)O` (some centres unmarked) [PhA, tetramethylhexadecanoic acid]: in [1], the RXR ligand result was “ligand of RXR”. For the same compound, the PPAR alpha activation result in data set [2] (physiologic concentrations, Ellinghaus 1999) is on record as “potent activator of PPAR alpha”.

`C/C(=C\CO)CCC[C@H](C)CCC[C@H](C)CCCC(C)C` [phytol]: the mortality or morbidity result in data set [3] (2% phytol in feed, compared with standard broiler feed) is “no difference”. In addition, in data set [3] (ROSS 308, chicken, in vivo), the “PhA average level in breast meat” value was 2.6 % of total fatty acids; the “content of PhA in the breast meat, one subgroup” value is reported as “around 1.9%”; the “content of PhA in the breast meat, other subgroup” value is “around 3.6%”. In addition, in data set [4], the mortality nor morbidity entry was “no difference”. In addition, in data set [5] (vs standard diet), the survival rate result is on record as “no difference”. Besides, in data set [5] (start 0.7 g), the “growth (weight at end of feeding trial)” value turned out to be 2.05 g. The sickness or death result in data set [6] (2% phytol feed, entire finishing period) is listed as “no animals got sick or died”. The “content of PhA and PrA in the pork meat” value in [6] (male, hybrid, pig, in vivo, 1 month) was 2.3 % of total FAME fatty acids. Further, in [6] (pig, in vivo), the “feeding behavior or level of activity” value was “no difference”. Further, the “morbidity (growth retardation, weight loss and lethargy)” value in data set [7] (from levels of supplementation of 1% of diet weight on) is “substantial morbidity”. The mortality entry in data set [7] (levels of 5% of diet weight) is “serious mortality rates”.

conjugated linoleic acid [CLA]: the “max of TFA (maximum level of CLA in product as percent of total fatty acids)” value is given as 0.7% in [8] (lean pork (>100 kg), max 1% CLA in diet, Thiel-Cooper 2001); 1.6% in [8] (lean pork (>100 kg), max 5% CLA in diet, Joo 2002); 3.2% in [8] (lean pork (up to 55 kg), max 1.4% CLA in diet, Ramsey 2001); 7.95% in [9] (max 2% CLA in diet, Shafer 2001); 5.3% in data set [9] (max 3% CLA in diet, Raes 2002); 11.2% in [9] (max 5% CLA in diet, Chamruspollert 1999). Further, the “max of TFA (maximum level of CLA in product as percent of total fatty acids)” value in data set [10] is reported as 2.92%; in data set [11], 8.1%; in data set [12] it was 13%; in data set [13], 10.27%. For the same compound, in data set [2] (Moya-Camarena 1999), the PPAR alpha agonism entry was “agonist of PPAR alpha”. In addition, the PPAR gamma agonism entry in data set [14] was “agonist of PPAR gamma”.
